From US20230094952A1, “Method for Culturing Hematopoietic Stem Cells” (Sumitomo Pharma Co., Ltd., priority 2019, published 2023)

How the values were obtained:
[1] = system: mouse long-term hematopoietic stem cells; assay: Combination test with UM171 on mouse long-term hematopoietic stem cells; format: cell-based; settings: for KLS-positive rate / Viable cell count / mCherry-positive rate: n=2
Experimental: The cells after classification were seeded in a 96-well plate. A cell culture medium was prepared by adding Stem Cell Factor (SCF, manufactured by PeproTech, Inc.) and Thrombopoietin (TPO, manufactured by PeproTech, Inc.) to StemSpan SFEM culture medium (manufactured by […] Technologies Inc.) and added in advance to a cell culture 96-well plate (manufactured by BD Biosciences) at 100 μL/well, and the cells sorted with the FACS Aria II cell sorter (BD Biosciences) were then seeded at 10 cells/well.
The test compounds each in the form of 10 mM DMSO solution were diluted with the cell culture medium to a final concentration of 1 μM, and added to the cells seeded after classification through medium exchange to a final volume of 200 μL/well. Thereafter, the cells were cultured in a CO2 incubator under conditions of 37° C. and 5% CO2 for 1 week.
After culture, the cells were stained with the antibodies for the surface markers c-Kit and Sca-1, Ter-119, B220, CD3, CD4, CD8a, Gr-1, and CD11b, and the ratio and post-growth cell count of a KLS fraction (c-Kit^+, Lin^−, Sca-1^+) or an mCherry-positive fraction given with use of a FACS Aria II cell sorter were analyzed by using FlowJo (BD Biosciences). The mCherry-positive fraction is a cell fraction expressing the Hoxb5 gene, and the KLS fraction is a cell fraction being c-Kit-positive, Lin-negative, and Sca-1-positive, and includes hematopoietic stem cells and multipotent progenitor cells as main components.
A DMSO solution of artemether was adjusted with the cell culture medium to three final concentrations (0.1 μM, 1 μM, 10 μM), and a DMSO solution of UM171 was adjusted with the cell culture medium to four final concentrations (0.1 μM, 0.3 μM, 1 μM, 3 μM), and cell culture was performed at n=2 by the same method as in Example 1. The cell culture and evaluation criteria were the same as those in Example 2.

[2] = system: mouse long-term hematopoietic stem cells; assay: Reproducibility and concentration dependence test: 1-week culture of sorted Hoxb5-tri-mCherry mouse long-term hematopoietic stem cells, flow cytometry; format: cell-based; settings: day 7 of culture, n=2
How it was run: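 Hoxb5-tri-mCherry+ LT-HSCs (Lin−c-Kit+Sca-1+Flk2−CD34−/lo CD150+) were sorted from mouse bone marrow at 10 cells/well into StemSpan SFEM with SCF and TPO. Cells were cultured with compound for 1 week at 37°C, 5% CO2. Flow cytometry then measured KLS and mCherry+ fractions and cell counts.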

[3] = UM171 0.1 μM alone (DMSO, no artemether)
[4] = UM171 0.3 μM alone (DMSO, no artemether)
[5] = UM171 1 μM alone (DMSO, no artemether)
[6] = UM171 3 μM alone (DMSO, no artemether)

| SMILES | KLS-positive rate ([2]; Table 4, compound 0.1 μM) | Viable cell count ([2]; Table 4, compound 0.1 μM) | mCherry-positive rate ([2]; Table 4, compound 0.1 μM) | KLS-positive rate ([2]; Table 4, compound 0.3 μM) | Viable cell count ([2]; Table 4, compound 0.3 μM) | mCherry-positive rate ([2]; Table 4, compound 0.3 μM) | KLS-positive rate ([2]; Table 4, compound 1 μM) | Viable cell count ([2]; Table 4, compound 1 μM) | mCherry-positive rate ([2]; Table 4, compound 1 μM) | KLS-positive rate ([2]; Table 4, compound 3 μM) | Viable cell count ([2]; Table 4, compound 3 μM) | mCherry-positive rate ([2]; Table 4, compound 3 μM) | KLS-positive rate ([2]; Table 4, compound 10 μM) | Viable cell count ([2]; Table 4, compound 10 μM) | mCherry-positive rate ([2]; Table 4, compound 10 μM) | other results |
| --- | --- | --- | --- | --- | --- | --- | --- | --- | --- | --- | --- | --- | --- | --- | --- | --- |
| Cn1nnc(-c2ccc3c(c2)[nH]c2nc(Cc4ccccc4)nc(N[C@H]4CC[C@H](N)CC4)c23)n1 [UM171, (1r,4r)-N1-(2-benzyl-7-(2-methyl-2H-tetrazol-5-yl)-9H-pyrimido[4,5-b]indol-4-yl)cyclohexane-1,4-diamine] | – | – | – | – | – | – | – | – | – | – | – | – | – | – | – | KLS-positive rate [1, 3]: 41.0%; Viable cell count [1, 3]: 508.0 cell; mCherry-positive rate [1, 3]: 4.7%; KLS-positive rate [1, 4]: 71.6%; Viable cell count [1, 4]: 281.0 cell; mCherry-positive rate [1, 4]: 17.1%; KLS-positive rate [1, 5]: 98.0%; Viable cell count [1, 5]: 24.5 cell; mCherry-positive rate [1, 5]: 38.9%; KLS-positive rate [1, 6]: 82.2%; Viable cell count [1, 6]: 82.5 cell; mCherry-positive rate [1, 6]: 16.2%; Effect of culture with artemether and UM171 together on mCherry-positive and KLS-positive cell ratios ([1]; compared with any one of the substances alone): combinational effect |
| C[C@H]1[C@@H](CN)O[C@@H]2O[C@@]3(C)CC[C@H]4[C@H](C)CC[C@@H]1[C@@]24OO3 [Example 1-17, 1-[(3R,5aS,6R,8aS,9R,10S,12R,12aR)-3,6,9-Trimethyldecahydro-12H-3,12-epoxypyrano[4,3-j][1,2]benzodioxepin-10-yl]methanamine] | 15.9% | 947.0 cell | 4.9% | 16.1% | 902.0 cell | 2.5% | 19.4% | 641.5 cell | 16.1% | 24.0% | 315.0 cell | 70.1% | 51.8% | 80.0 cell | 100.0% | – |
| C[C@H]1[C@@H](OCc2ccccc2)O[C@@H]2O[C@@]3(C)CC[C@H]4[C@H](C)CC[C@@H]1[C@@]24OO3 [Example 1-24, (3R,5aS,6R,8aS,9R,10S,12R,12aR)-10-(benzyloxy)-3,6,9-trimethyldecahydro-12H-3,12-epoxypyrano[4,3-j][1,2]benzodioxepine] | 73.6% | 18.0 cell | 94.1% | 0.0% | 0.5 cell | 50.0% | 0.0% | 0.5 cell | 50.0% | 0.0% | 0.0 cell | 0.0% | 0.0% | 0.5 cell | 0.0% | – |
| CCO[C@H]1O[C@@H]2O[C@@]3(C)CC[C@H]4[C@H](C)CC[C@@H]([C@H]1C)[C@@]24OO3 [Example 1-31, artemotil, reference compound] | 26.5% | 201.5 cell | 84.9% | 19.7% | 194.0 cell | 96.3% | 62.3% | 19.5 cell | 98.3% | 87.5% | 2.5 cell | 100.0% | 25.0% | 1.5 cell | 50.0% | KLS-positive rate ([2]; Table 3, compound 0.1 μM): 28.85%; Viable cell count ([2]; Table 3, compound 0.1 μM): 1073 cell; mCherry-positive rate ([2]; Table 3, compound 0.1 μM): 57.4%; KLS-positive rate ([2]; Table 3, compound 0.3 μM): 21.95%; Viable cell count ([2]; Table 3, compound 0.3 μM): 1529 cell; mCherry-positive rate ([2]; Table 3, compound 0.3 μM): 47.65%; KLS-positive rate ([2]; Table 3, compound 1 μM): 30.8%; Viable cell count ([2]; Table 3, compound 1 μM): 249 cell; mCherry-positive rate ([2]; Table 3, compound 1 μM): 92.85%; KLS-positive rate ([2]; Table 3, compound 3 μM): 66.65%; Viable cell count ([2]; Table 3, compound 3 μM): 8 cell; mCherry-positive rate ([2]; Table 3, compound 3 μM): 100%; KLS-positive rate ([2]; Table 3, compound 10 μM): 0%; Viable cell count ([2]; Table 3, compound 10 μM): 0 cell; mCherry-positive rate ([2]; Table 3, compound 10 μM): 0% |
| C[C@H]1[C@H](OC(=O)CCC(=O)O)O[C@@H]2O[C@@]3(C)CC[C@H]4[C@H](C)CC[C@@H]1[C@@]24OO3 [Example 1-32, artesunate, reference compound] | 21.0% | 597.5 cell | 9.4% | 12.4% | 355.5 cell | 6.0% | 90.6% | 9.0 cell | 100.0% | 21.2% | – | 53.3% | 0.0% | 1.0 cell | 25.0% | KLS-positive rate ([2]; Table 3, compound 0.1 μM): 36.3%; Viable cell count ([2]; Table 3, compound 0.1 μM): 1065.5 cell; mCherry-positive rate ([2]; Table 3, compound 0.1 μM): 23.59%; KLS-positive rate ([2]; Table 3, compound 0.3 μM): 46.4%; Viable cell count ([2]; Table 3, compound 0.3 μM): 540 cell; mCherry-positive rate ([2]; Table 3, compound 0.3 μM): 35.1%; KLS-positive rate ([2]; Table 3, compound 1 μM): 45.3%; Viable cell count ([2]; Table 3, compound 1 μM): 266 cell; mCherry-positive rate ([2]; Table 3, compound 1 μM): 91.2%; KLS-positive rate ([2]; Table 3, compound 3 μM): 0%; Viable cell count ([2]; Table 3, compound 3 μM): 0.5 cell; mCherry-positive rate ([2]; Table 3, compound 3 μM): 50%; KLS-positive rate ([2]; Table 3, compound 10 μM): 0%; Viable cell count ([2]; Table 3, compound 10 μM): 0.5 cell; mCherry-positive rate ([2]; Table 3, compound 10 μM): 0% |
| C[C@H]1[C@@H](OCC(F)(F)F)O[C@@H]2O[C@@]3(C)CC[C@H]4[C@H](C)CC[C@@H]1[C@@]24OO3 [Example 1-22, (3R,5aS,6R,8aS,9R,10S,12R,12aR)-3,6,9-Trimethyl-10-(2,2,2-trifluoroethoxy)decahydro-12H-3,12-epoxypyrano[4,3-j][1,2]benzodioxepine] | 26.7% | 216.0 cell | 90.9% | 87.0% | 12.5 cell | 100.0% | 0.0% | 0.5 cell | 0.0% | 50.0% | 0.5 cell | 50.0% | 0.0% | 0.5 cell | 0.0% | – |
| CC(C)O[C@H]1O[C@@H]2O[C@@]3(C)CC[C@H]4[C@H](C)CC[C@@H]([C@H]1C)[C@@]24OO3 [Example 1-19, (3R,5aS,6R,8aS,9R,10S,12R,12aR)-3,6,9-Trimethyl-10-[(propan-2-yl)oxy]decahydro-12H-3,12-epoxypyrano[4,3-j][1,2]benzodioxepine] | 9.5% | 469.0 cell | 56.3% | 41.7% | 151.0 cell | 96.2% | 4.2% | 6.0 cell | 50.0% | 0.0% | 0.0 cell | 0.0% | 0.0% | 0.5 cell | 50.0% | – |
